Source: ChEMBL document CHEMBL1132871, “Antimycobacterial activity of ionic fullerene derivatives” (Bioorg Med Chem Lett, 2000)
≈ marks a conversion by molar mass, not a printed value.

Columns and labels:
[1] = system: Mycobacterium tuberculosis; assay: The compound was tested for its ability to inhibit the growth of Mycobacterium tuberculosis strain H37Rv; assay type: functional
Mycobacterium avium [2] = assay: The compound was tested for its ability to inhibit the growth of Mycobacterium avium.; assay type: functional
[3] = system: Mycobacterium tuberculosis; assay: The compound was tested for its ability to inhibit the growth of Mycobacterium tuberculosis strain H6/99; assay type: functional
[4] = Solubility in DMSO:water(9:1); assay type: physicochemical; settings: read-out: S
[5] = system: Mycobacterium tuberculosis; assay: The compound was tested for its ability to inhibit the growth of Mycobacterium tuberculosis strain H37Rv; Sensitive; assay type: functional, organism-based
Mycobacterium avium [6] = assay: The compound was tested for its ability to inhibit the growth of Mycobacterium avium; Resistant; assay type: functional, organism-based

Compound	MIC [1]	MIC (Mycobacterium avium [2])	MIC [3]	solubility [4]	MIC [5]	MIC (Mycobacterium avium [6])
COCCOCCOCCN1CCCC1	> 500 µg/mL	> 500 µg/mL	> 500 µg/mL	–	–	–
COCCOCCOCC1N(C)CC23C4=C5C6=C7c8c9c%10c%11c%12c%13c%14c(c2c2c%15c%16c%17c%18c%19c(c5c5c%20c%21c%22c%23c(c8C%22C65)c%10c5c%11c6c%13c8c(c%15%14)c%16c%10c%18c%11c(c%20%19)c%21c%13c%23c5c5c%13c%11c%10c8c65)C%17C42)C%12C9C713 (stereo not given)	–	–	–	15 µM (≈ 13.7 µg/mL)	–	–
COCCOCCOCCN1CC23C4=C5C6=C7c8c9c%10c%11c%12c%13c%14c(c2c2c%15c%16c%17c%18c%19c(c5c5c%20c%21c%22c%23c(c8C%22C65)c%10c5c%11c6c%13c8c(c%15%14)c%16c%10c%18c%11c(c%20%19)c%21c%13c%23c5c5c%13c%11c%10c8c65)C%17C42)C%12C9C73C1 (stereo not given)	–	–	–	15 µM (≈ 13.7 µg/mL)	–	–
COCCOCCOCC[N+]1(C)CCCC1.[I-]	> 500 µg/mL	> 500 µg/mL	> 500 µg/mL	–	–	–
COCCOCCOCC1CCC[N+]1(C)C.[I-] (stereo not given)	> 500 µg/mL	> 500 µg/mL	> 500 µg/mL	–	–	–
COCCOCCOCCN1CCCC1COCCOCCOC (stereo not given)	> 500 µg/mL	> 500 µg/mL	> 500 µg/mL	–	–	–
NNC(=O)c1ccncc1	–	–	–	–	Sensitive	Resistant
COCCOCCOCCN1CC23C4=C5C6=C7c8c9c%10c%11c%12c%13c%14c(c2c2c%15c%16c%17c%18c%19c(c5c5c%20c%21c%22c%23c(c8C%22C65)c%10c5c%11c6c%13c8c(c%15%14)c%16c%10c%18c%11c(c%20%19)c%21c%13c%23c5c5c%13c%11c%10c8c65)C%17C42)C%12C9C73C1COCCOCCOC (stereo not given)	500 µg/mL (≈ 477 µM)	50 µg/mL (≈ 47.7 µM)	500 µg/mL (≈ 477 µM)	30 µM (≈ 31.4 µg/mL)	–	–
COCCOCCOCC1C23C4=C5C6=C7C8c9c(c%10c%11c%12c%13c%14c%15c(c4c4c%16c%17c%18c%19c%20c(c6c6c%21c%22c(c%23c9c%11c9c%23c%11c%22c%22c(c%20%21)c%19c%19c%17c%17c(c%15%16)c%14c%14c%12c9c9c%11c%22c%19c%17c%149)C68)C5C4%18)C2C%10%13)C73C[N+]1(C)C.[I-] (stereo not given)	50 µg/mL	500 µg/mL	5 µg/mL	15 µM	–	–
COCCOCCOCC[N+]1(C)CCCC1COCCOCCOC.[I-] (stereo not given)	> 500 µg/mL	> 500 µg/mL	> 500 µg/mL	–	–	–
COCCOCCOCC[N+]1(C)CC23C4=C5C6=C7c8c9c%10c%11c%12c%13c%14c(c2c2c%15c%16c%17c%18c%19c(c5c5c%20c%21c%22c%23c(c8C%22C65)c%10c5c%11c6c%13c8c(c%15%14)c%16c%10c%18c%11c(c%20%19)c%21c%13c%23c5c5c%13c%11c%10c8c65)C%17C42)C%12C9C73C1COCCOCCOC.[I-] (stereo not given)	50 µg/mL	50 µg/mL	5 µg/mL	95 µM	–	–
CO[C@H]1/C=C/O[C@@]2(C)Oc3c(C)c(O)c4c(O)c(c(/C=N/N5CCN(C)CC5)c(O)c4c3C2=O)NC(=O)/C(C)=C\C=C\[C@H](C)[C@H](O)[C@@H](C)[C@@H](O)[C@@H](C)[C@H](OC(C)=O)[C@@H]1C	–	–	–	–	Sensitive	Resistant
COCCOCCOCC[N+]1(C)CC23C4=C5C6=C7c8c9c%10c%11c%12c%13c%14c(c2c2c%15c%16c%17c%18c%19c(c5c5c%20c%21c%22c%23c(c8C%22C65)c%10c5c%11c6c%13c8c(c%15%14)c%16c%10c%18c%11c(c%20%19)c%21c%13c%23c5c5c%13c%11c%10c8c65)C%17C42)C%12C9C73C1.[I-] (stereo not given)	50 µg/mL	500 µg/mL	500 µg/mL	43 µM	–	–
COCCOCCOCC1CCCN1C (stereo not given)	> 500 µg/mL	> 500 µg/mL	> 500 µg/mL	–	–	–
